Tested on: human ventricular trabeculae
Assay: Action potential recording and pro-arrhythmic score analysis in human ventricular trabeculae (hVT);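 further: sharp microelectrode action potential recordings at 37°C in Tyrode-perfused trabeculae, 4 cumulative concentrations each applied 31 min, values averaged over last 30 APs, vehicle 0.1% DMSO as control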
[1] = 1Hz, 1-FOLD free ETPC (0.009µM)
[2] = 1Hz, 11-FOLD free ETPC (0.009µM)
[3] = 1Hz, 111-FOLD free ETPC (0.009µM)
[4] = 1Hz, 1111-FOLD free ETPC (0.009µM)
[5] = 2Hz, 1-FOLD free ETPC (0.009µM)
[6] = 2Hz, 11-FOLD free ETPC (0.009µM)
[7] = 2Hz, 111-FOLD free ETPC (0.009µM)
[8] = 2Hz, 1111-FOLD free ETPC (0.009µM)

Procedure: Briefly, the human heart was transferred into a dissection vessel containing a cold (4°C), fresh proprietary dissection solution. The heart was maintained completely submerged in dissection solution. Ventricular trabeculae were dissected and transferred to the recording chamber.
Briefly, a single tissue was mounted into the experimental chamber filled with oxygenated Tyrode's external solution. The temperature of the solution was maintained at 37°C with flow rate at 5 mL per minute. The tissue was allowed to equilibrate for 30–60 min with stimulation (3 V, 3 ms) at a frequency of 1.0 Hz. High impedance borosilicate microelectrodes were prepared with a tip resistance of 10–20 MΩ once filled with 3 M KCl. Upon tissue impalement, the membrane potential was allowed to stabilize (typically, around −85 mV). Tissues with resting membrane potentials more positive than −75 mV were rejected. Bipolar stimulation at 1.5x threshold was applied and recordings were performed in continuous mode with sampling at 20 kHz using ADInstruments and LabChart Software.
Interruption of perfusion/oxygenation; (2). Absence of Aps following stimulation at baseline; (3). Time frame of drug exposure not respected; (4). Unstable response to stimulation at baseline; (5). Resting membrane potential (RMP) > −75 mV; 7). Maximal amplitude of AP (AMAX) <70 mV; 8). AP duration at 90% repolarization (APD90) <200 ms or >450 ms.
Experimental Procedure: Each test article was evaluated at 4 concentrations in 4 ventricular trabeculae derived from a minimum of 2 donor hearts. Testing concentrations were chosen based upon human free ETPC, aiming to cover 1–100-fold of human free ETPC. […] Briefly, following stabilization of each tissue, APs were collected and assessed for 31 min in vehicle control solution (Tyrode with 0.1% DMSO) at stimulation frequencies of 1 Hz for 25 min, 2 Hz for 3 min and then 1 Hz for 3 min. Following this vehicle control period, 4 concentrations of a test compound were applied sequentially and cumulatively. Each concentration was applied for 31 min with the same stimulation sequence as in vehicle controls.
For each frequency tested, the last 30 APs acquired at the end of the period were averaged for vehicle controls and for each test article concentration. Analysis at 1 Hz included only the last 30 APs of the initial 25-min incubation period. The following AP parameters and pro-arrhythmia variables were analyzed offline upon the completion of recordings:
• RMP (mV) • AMAX (mV) • AP duration at percent repolarization (APD20, APD30, APD50, APD60, APD90) (ms) • Short term variability analysis of AP duration (STV): Beat-to-beat variability of repolarization was quantified as STV from APD90 Poincare plots over a period of 30 sec.
Compound effects were quantified relative to the data collected during the vehicle control period (see Figure 1). […] Additionally, based on AnaBios historical data, threshold values for changes over baseline control for AP instability, APD alternans, Maximum APD dispersion and ERP (APD) were based upon an effect level of 10%. When applicable, differences were tested for statistical significance using the unpaired Student's t-test. A value of P < 0.05 was considered significant.
AP parameters and pro-arrhythmia variables were combined into a meaningful, single score to assess the pro-arrhythmic risk of a compound at each concentration tested. The pro-arrhythmic potential of compounds at 1 or 2 Hz was determined by assigning a weighted scale to each variable (Table 1).

SMILES: COc1c(N2C[C@@H]3CCCN[C@@H]3C2)c(F)cc2c(=O)c(C(=O)O)cn(C3CC3)c12 [MOXIFLOXACIN, Moxifloxacin]
- EAD detection (at 91-fold hETPC): only detected in one trabecula

SMILES: CC(C)(C)c1ccc(C(O)CCCN2CCC(C(O)(c3ccccc3)c3ccccc3)CC2)cc1 (stereo not shown) [TERFENADINE, Terfenadine]
- AMAX [1]: 113
- AMAX percentage change compared to vehicle control [1]: 1%
- APD30 [1]: 148
- APD30 percentage change compared to vehicle control [1]: 4%
- APD50 [1]: 199
- APD50 percentage change compared to vehicle control [1]: 3%
- APD90 [1]: 278
- APD90 percentage change compared to vehicle control [1]: 1%
- Alternans [1]: 0.70
- Alternans percentage change compared to vehicle control [1]: 53%
- Beat Escape [1]: 0
- Beat Escape percentage change compared to vehicle control [1]: 0%
- EADs [1]: 0
- EADs percentage change compared to vehicle control [1]: 0%
- ERP [1]: 0.45
- ERP percentage change compared to vehicle control [1]: -2%
- Max Dispersion [1]: 4.48
- Max Dispersion percentage change compared to vehicle control [1]: 60%
- RMP [1]: -89
- RMP percentage change compared to vehicle control [1]: 1%
- Refractoriness Escape [1]: 0
- Refractoriness Escape percentage change compared to vehicle control [1]: 0%
- STV [1]: 0.50
- STV percentage change compared to vehicle control [1]: 72%
- Triangulation [1]: 130
- Triangulation percentage change compared to vehicle control [1]: -2%
- AMAX [2]: 109
- AMAX percentage change compared to vehicle control [2]: -1%
- APD30 [2]: 152
- APD30 percentage change compared to vehicle control [2]: 6%
- APD50 [2]: 203
- APD50 percentage change compared to vehicle control [2]: 4%
- APD90 [2]: 286
- APD90 percentage change compared to vehicle control [2]: 3%
- Alternans [2]: 0.62
- Alternans percentage change compared to vehicle control [2]: 35%
- Beat Escape [2]: 0
- Beat Escape percentage change compared to vehicle control [2]: 0%
- EADs [2]: 0
- EADs percentage change compared to vehicle control [2]: 0%
- ERP [2]: 0.44
- ERP percentage change compared to vehicle control [2]: -3%
- Max Dispersion [2]: 2.80
- Max Dispersion percentage change compared to vehicle control [2]: 0%
- RMP [2]: -86
- RMP percentage change compared to vehicle control [2]: -2%
- Refractoriness Escape [2]: 0
- Refractoriness Escape percentage change compared to vehicle control [2]: 0%
- STV [2]: 0.45
- STV percentage change compared to vehicle control [2]: 40%
- Triangulation [2]: 134
- Triangulation percentage change compared to vehicle control [2]: 0%
- AMAX [3]: 109
- AMAX percentage change compared to vehicle control [3]: -2%
- APD30 [3]: 148
- APD30 percentage change compared to vehicle control [3]: 4%
- APD50 [3]: 200
- APD50 percentage change compared to vehicle control [3]: 3%
- APD90 [3]: 284
- APD90 percentage change compared to vehicle control [3]: 2%
- Alternans [3]: 0.52
- Alternans percentage change compared to vehicle control [3]: 12%
- Beat Escape [3]: 0
- Beat Escape percentage change compared to vehicle control [3]: 0%
- EADs [3]: 0
- EADs percentage change compared to vehicle control [3]: 0%
- ERP [3]: 0.45
- ERP percentage change compared to vehicle control [3]: 0%
- Max Dispersion [3]: 2.43
- Max Dispersion percentage change compared to vehicle control [3]: -13%
- RMP [3]: -85
- RMP percentage change compared to vehicle control [3]: -3%
- Refractoriness Escape [3]: 0
- Refractoriness Escape percentage change compared to vehicle control [3]: 0%
- STV [3]: 0.39
- STV percentage change compared to vehicle control [3]: 30%
- Triangulation [3]: 135
- Triangulation percentage change compared to vehicle control [3]: 0%
- AMAX [4]: 110
- AMAX percentage change compared to vehicle control [4]: 0%
- APD30 [4]: 140
- APD30 percentage change compared to vehicle control [4]: -2%
- APD50 [4]: 192
- APD50 percentage change compared to vehicle control [4]: -2%
- APD90 [4]: 277
- APD90 percentage change compared to vehicle control [4]: 0%
- Alternans [4]: 0.60
- Alternans percentage change compared to vehicle control [4]: 31%
- Beat Escape [4]: 0
- Beat Escape percentage change compared to vehicle control [4]: 0%
- EADs [4]: 0
- EADs percentage change compared to vehicle control [4]: 0%
- ERP [4]: 0.46
- ERP percentage change compared to vehicle control [4]: 2%
- Max Dispersion [4]: 3.70
- Max Dispersion percentage change compared to vehicle control [4]: 32%
- RMP [4]: -87
- RMP percentage change compared to vehicle control [4]: -1%
- Refractoriness Escape [4]: 0
- Refractoriness Escape percentage change compared to vehicle control [4]: 0%
- STV [4]: 0.44
- STV percentage change compared to vehicle control [4]: 56%
- Triangulation [4]: 137
- Triangulation percentage change compared to vehicle control [4]: 2%
- AMAX [5]: 109
- AMAX percentage change compared to vehicle control [5]: 2%
- APD30 [5]: 107
- APD30 percentage change compared to vehicle control [5]: 8%
- APD50 [5]: 151
- APD50 percentage change compared to vehicle control [5]: 6%
- APD90 [5]: 228
- APD90 percentage change compared to vehicle control [5]: 2%
- Alternans [5]: 1.31
- Alternans percentage change compared to vehicle control [5]: 24%
- Beat Escape [5]: 0
- Beat Escape percentage change compared to vehicle control [5]: 0%
- EADs [5]: 0
- EADs percentage change compared to vehicle control [5]: 0%
- ERP [5]: 0.48
- ERP percentage change compared to vehicle control [5]: -3%
- Max Dispersion [5]: 5.60
- Max Dispersion percentage change compared to vehicle control [5]: 14%
- RMP [5]: -87
- RMP percentage change compared to vehicle control [5]: 1%
- Refractoriness Escape [5]: 0
- Refractoriness Escape percentage change compared to vehicle control [5]: 0%
- STV [5]: 0.91
- Triangulation [5]: 120
- Triangulation percentage change compared to vehicle control [5]: -2%
- AMAX [6]: 108
- AMAX percentage change compared to vehicle control [6]: 2%
- APD30 [6]: 110
- APD30 percentage change compared to vehicle control [6]: 11%
- APD50 [6]: 153
- APD50 percentage change compared to vehicle control [6]: 7%
- APD90 [6]: 231
- APD90 percentage change compared to vehicle control [6]: 4%
- Alternans [6]: 0.97
- Alternans percentage change compared to vehicle control [6]: -8%
- Beat Escape [6]: 0
- Beat Escape percentage change compared to vehicle control [6]: 0%
- EADs [6]: 0
- EADs percentage change compared to vehicle control [6]: 0%
- ERP [6]: 0.47
- ERP percentage change compared to vehicle control [6]: -6%
- Max Dispersion [6]: 4.40
- Max Dispersion percentage change compared to vehicle control [6]: -11%
- RMP [6]: -86
- RMP percentage change compared to vehicle control [6]: -1%
- Refractoriness Escape [6]: 0
- Refractoriness Escape percentage change compared to vehicle control [6]: 0%
- STV [6]: 0.66
- Triangulation [6]: 121
- Triangulation percentage change compared to vehicle control [6]: -2%
- AMAX [7]: 109
- AMAX percentage change compared to vehicle control [7]: 2%
- APD30 [7]: 108
- APD30 percentage change compared to vehicle control [7]: 10%
- APD50 [7]: 154
- APD50 percentage change compared to vehicle control [7]: 7%
- APD90 [7]: 234
- APD90 percentage change compared to vehicle control [7]: 4%
- Alternans [7]: 1.28
- Alternans percentage change compared to vehicle control [7]: 21%
- Beat Escape [7]: 0
- Beat Escape percentage change compared to vehicle control [7]: 0%
- EADs [7]: 0
- EADs percentage change compared to vehicle control [7]: 0%
- ERP [7]: 0.48
- ERP percentage change compared to vehicle control [7]: -2%
- Max Dispersion [7]: 5.53
- Max Dispersion percentage change compared to vehicle control [7]: 12%
- RMP [7]: -85
- RMP percentage change compared to vehicle control [7]: -2%
- Refractoriness Escape [7]: 0
- Refractoriness Escape percentage change compared to vehicle control [7]: 0%
- STV [7]: 0.89
- Triangulation [7]: 126
- Triangulation percentage change compared to vehicle control [7]: 0%
- AMAX [8]: 108
- AMAX percentage change compared to vehicle control [8]: 2%
- APD30 [8]: 105
- APD30 percentage change compared to vehicle control [8]: 5%
- APD50 [8]: 150
- APD50 percentage change compared to vehicle control [8]: 4%
- APD90 [8]: 233
- APD90 percentage change compared to vehicle control [8]: 3%
- Alternans [8]: 0.96
- Alternans percentage change compared to vehicle control [8]: -10%
- Beat Escape [8]: 0
- Beat Escape percentage change compared to vehicle control [8]: 0%
- EADs [8]: 0
- EADs percentage change compared to vehicle control [8]: 0%
- ERP [8]: 0.48
- ERP percentage change compared to vehicle control [8]: -3%
- Max Dispersion [8]: 3.10
- Max Dispersion percentage change compared to vehicle control [8]: -37%
- RMP [8]: -85
- RMP percentage change compared to vehicle control [8]: -2%
- Refractoriness Escape [8]: 0
- Refractoriness Escape percentage change compared to vehicle control [8]: 0%
- STV [8]: 0.71
- Triangulation [8]: 128
- Triangulation percentage change compared to vehicle control [8]: 3%

— publication PMC5760531, “Action Potential Recording and Pro-arrhythmia Risk Analysis in Human Ventricular Trabeculae” (Frontiers in Physiology, 2018)
